# Reference: patent publication US20220289794A1, “SYNTHETIC ANTIMICROBIAL PEPTIDES” (priority 2019, published 2022)
# Non-standard residues stand in square brackets, D forms with d. Residues, ends and D or L forms follow the SMILES beside them. Dip = N[C@H](C(=O)O)C(c1ccccc1)c1ccccc1; 2Nal = N[C@@H](Cc1ccc2ccccc2c1)C(=O)O
# Key:
# human red blood cells = tested on: human red blood cells; set-up: unit not given beside the values
# [1] = tested on: Methicillin-resistant Staphylococcus aureus MRSA (ATCC BAA-1556); conditions: ATCC BAA-1556
# [2] = tested on: Escherichia coli (ATCC 25922); conditions: ATCC 25922
# S. aureus ATCC 29213 = conditions: ATCC 29213
# [3] = tested on: Pseudomonas aeruginosa (ATCC 27883); conditions: ATCC 27883
Structure (SMILES),HC50 (human red blood cells),MIC MRSA ATCC BAA-1556 [1],MIC E. coli ATCC 25922 [2],MIC S. aureus ATCC 29213 (S. aureus ATCC 29213),MIC P. aeruginosa ATCC 27883 [3]
"N=C(N)NCCC[C@H](NC(=O)[C@H](CCCNC(=N)N)NC(=O)[C@@H](N)CCCNC(=N)N)C(=O)N[C@H](C(=O)N[C@H](C(=O)N[C@H](C(=O)O)C(c1ccccc1)c1ccccc1)C(c1ccccc1)c1ccccc1)C(c1ccccc1)c1ccccc1 [IFX-002-1, NH2-Arg-Arg-Arg-Dip-Dip-Dip-OH] (H-RRR[Dip][Dip][Dip]-OH)",265,3.1 µg/mL,6.2 µg/mL,3.1 µg/mL,25 µg/mL
"N=C(N)NCCC[C@@H]1NC(=O)[C@H](CCCNC(=N)N)NC(=O)[C@H](Cc2ccc3ccccc3c2)NC(=O)[C@H](Cc2ccc3ccccc3c2)NC(=O)[C@H](Cc2ccc3ccccc3c2)NC(=O)[C@H](CCCNC(=N)N)NC1=O [IFX-003, c[Arg-Arg-Arg-NaI-NaI-NaI]] (cyclo([2Nal][2Nal][2Nal]RRR))",240,6.2 µg/mL,25 µg/mL,3.1 µg/mL,50 µg/mL
"N=C(N)NCCC[C@H](NC(=O)[C@H](CCCNC(=N)N)NC(=O)[C@@H](N)CCCNC(=N)N)C(=O)N[C@@H](Cc1ccc2ccccc2c1)C(=O)N[C@@H](Cc1ccc2ccccc2c1)C(=O)N[C@@H](Cc1ccc2ccccc2c1)C(=O)O [IFX-003-1, NH2-Arg-Arg-Arg-NaI -NaI-NaI-OH] (H-RRR[2Nal][2Nal][2Nal]-OH)",310,3.1 µg/mL,16 µg/mL,3.1 µg/mL,25 µg/mL
"N=C(N)NCCC[C@@H]1NC(=O)[C@H](CCCNC(=N)N)NC(=O)[C@H](Cc2c[nH]c3ccccc23)NC(=O)[C@H](Cc2ccc3ccccc3c2)NC(=O)[C@H](Cc2ccc3ccccc3c2)NC(=O)[C@H](CCCNC(=N)N)NC1=O [IFX-025, c[Arg-Arg-Arg-NaI-NaI-Trp]] (cyclo(RRR[2Nal][2Nal]W))",190,,,,
"N=C(N)NCCC[C@@H]1NC(=O)[C@H](CCCNC(=N)N)NC(=O)[C@H](CCCNC(=N)N)NC(=O)[C@H](C(c2ccccc2)c2ccccc2)NC(=O)[C@H](C(c2ccccc2)c2ccccc2)NC(=O)[C@H](Cc2c[nH]c3ccccc23)NC(=O)[C@H](CCCNC(=N)N)NC1=O [IFX-026, c[Arg-Arg-Arg-Arg-Trp-Dip-Dip]] (cyclo([Dip][Dip]RRRRW))",240,,,,

# The remaining lines, values ahead:
HC50 (human red blood cells),MIC MRSA ATCC BAA-1556 [1],MIC E. coli ATCC 25922 [2],MIC S. aureus ATCC 29213 (S. aureus ATCC 29213),MIC P. aeruginosa ATCC 27883 [3],Structure (SMILES)
860,,,,,"N=C(N)NCCC[C@@H]1NC(=O)[C@H](CCCNC(=N)N)NC(=O)[C@H](CCCNC(=N)N)NC(=O)[C@H](C(c2ccccc2)c2ccccc2)NC(=O)[C@H](Cc2c[nH]c3ccccc23)NC(=O)[C@H](C(c2ccccc2)c2ccccc2)NC(=O)[C@H](CCCNC(=N)N)NC1=O [IFX-027, c[Arg-Arg-Arg-Arg-Dip-Trp-Dip]] (cyclo(RRRR[Dip]W[Dip]))"
370,,,,,"N=C(N)NCCC[C@@H]1NC(=O)[C@H](CCCNC(=N)N)NC(=O)[C@H](Cc2c[nH]c3ccccc23)NC(=O)[C@H](C(c2ccccc2)c2ccccc2)NC(=O)[C@H](C(c2ccccc2)c2ccccc2)NC(=O)[C@H](CCCNC(=N)N)NC(=O)[C@H](CCCNC(=N)N)NC1=O [IFX-028, c[Arg-Arg-Arg-Arg-Dip-Dip-Trp]] (cyclo([Dip][Dip]WRRRR))"
200,,,,,"N=C(N)NCCC[C@@H]1NC(=O)[C@H](CCCNC(=N)N)NC(=O)[C@H](CCCNC(=N)N)NC(=O)[C@H](Cc2ccc3ccccc3c2)NC(=O)[C@H](Cc2ccc3ccccc3c2)NC(=O)[C@H](Cc2c[nH]c3ccccc23)NC(=O)[C@H](CCCNC(=N)N)NC1=O [IFX-029, c[Arg-Arg-Arg-Arg-Trp-NaI-NaI]] (cyclo(RRRRW[2Nal][2Nal]))"
430,,,,,"N=C(N)NCCC[C@@H]1NC(=O)[C@H](CCCNC(=N)N)NC(=O)[C@H](CCCNC(=N)N)NC(=O)[C@H](Cc2ccc3ccccc3c2)NC(=O)[C@H](Cc2c[nH]c3ccccc23)NC(=O)[C@H](Cc2ccc3ccccc3c2)NC(=O)[C@H](CCCNC(=N)N)NC1=O [IFX-030, c[Arg-Arg-Arg-Arg-NaI-Trp-NaI]] (cyclo(RRRR[2Nal]W[2Nal]))"
